From ChEMBL document CHEMBL6134895, “Strategic Design and Optimization of Umifenovir Analogues: Balancing Antiviral Efficacy and hERG Toxicity against SARS-CoV-2” (J Med Chem, 2025)

The compounds below were run on SARS-CoV-2 (assay: Antiviral activity against SARS CoV-2 assessed as inhibition of viral entry into HEK293T-hACE2 cells pretreated compound with HIV-1-based SARS CoV-2 pseudovirus harboring reporter NanoLuc luciferase gene for 1 hr followed by exposure to HEK293T-hACE2 cells measured after 48 hrs by Nano-Glo luciferase assay). Details: Severe acute respiratory syndrome coronavirus 2.
Type: functional, organism-based
Compound `Cc1ccc(Cn2c(CSc3c(C)cc(C)cc3C)c(C(=O)NC3CCN(C(C)C)CC3)c3cc(O)c(Br)cc32)cc1` has an IC50 of 170 nM. In the case of `CCOC(=O)c1c(CSc2ccccc2)n(C)c2cc(Br)c(O)c(CN(C)C)c12`, the IC50 is reported as 2300 nM. For `Cc1ccc(Cn2c(CSc3c(C)cc(C)cc3C)c(C(=O)N3CCC(N4CCOCC4)CC3)c3cc(O)c(Br)cc32)cc1`, the IC50 was 280 nM.
